Experiments:
Assay in all cases: Caliper, Mobility shift assay off-chip
[1] = tested on: ABL1 (human), P00519 [Q252H]
ABL2 (human) = ABL2 (human) (UniProt P42684)
AURKB (human) = AURKB (human) (UniProt Q96GD4)
AURKC (human) = AURKC (human) (UniProt Q9UQB9)
CAMK2B (human) = CAMK2B (human) (UniProt Q13554)
CHEK1 (human) = CHEK1 (human) (UniProt O14757)
CHEK2 (human) = CHEK2 (human) (UniProt O96017)
CSNK1D (human) = CSNK1D (human) (UniProt P48730)
DYRK1A (human) = DYRK1A (human) (UniProt Q13627)
[2] = tested on: FGFR2 (human), P21802 [N549H]
Sequence of FGFR2 (human), P21802 [N549H] (P21802 whole entry N549H, looked up): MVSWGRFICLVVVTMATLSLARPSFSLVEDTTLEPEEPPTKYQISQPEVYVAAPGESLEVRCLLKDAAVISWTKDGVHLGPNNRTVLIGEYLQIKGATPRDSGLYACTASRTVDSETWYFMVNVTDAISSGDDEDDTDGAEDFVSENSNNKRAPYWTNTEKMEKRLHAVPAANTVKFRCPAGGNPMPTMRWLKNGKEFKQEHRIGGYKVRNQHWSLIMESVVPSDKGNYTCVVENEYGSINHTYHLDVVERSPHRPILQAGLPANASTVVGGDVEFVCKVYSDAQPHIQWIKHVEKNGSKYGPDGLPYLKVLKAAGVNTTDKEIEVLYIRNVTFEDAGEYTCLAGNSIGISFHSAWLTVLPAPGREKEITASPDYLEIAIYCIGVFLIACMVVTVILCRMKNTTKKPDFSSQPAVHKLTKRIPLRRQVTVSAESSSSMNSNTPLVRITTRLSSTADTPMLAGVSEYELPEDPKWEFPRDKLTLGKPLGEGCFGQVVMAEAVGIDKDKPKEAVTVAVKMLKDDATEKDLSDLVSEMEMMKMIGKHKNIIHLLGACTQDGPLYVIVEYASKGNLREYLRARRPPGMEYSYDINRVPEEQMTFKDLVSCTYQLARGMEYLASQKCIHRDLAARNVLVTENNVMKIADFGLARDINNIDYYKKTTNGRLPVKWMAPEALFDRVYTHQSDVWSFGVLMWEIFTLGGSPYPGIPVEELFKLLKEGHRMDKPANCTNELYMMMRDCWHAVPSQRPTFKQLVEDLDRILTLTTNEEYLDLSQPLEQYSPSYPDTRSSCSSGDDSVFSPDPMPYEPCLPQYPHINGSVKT

FGFR4 (human) = FGFR4 (human) (UniProt P22455)
FLT3 (human) = FLT3 (human) (UniProt P36888)
GSK3B (human) = GSK3B (human) (UniProt P49841)
Sequence of GSK3B (human) (P49841 whole entry, looked up): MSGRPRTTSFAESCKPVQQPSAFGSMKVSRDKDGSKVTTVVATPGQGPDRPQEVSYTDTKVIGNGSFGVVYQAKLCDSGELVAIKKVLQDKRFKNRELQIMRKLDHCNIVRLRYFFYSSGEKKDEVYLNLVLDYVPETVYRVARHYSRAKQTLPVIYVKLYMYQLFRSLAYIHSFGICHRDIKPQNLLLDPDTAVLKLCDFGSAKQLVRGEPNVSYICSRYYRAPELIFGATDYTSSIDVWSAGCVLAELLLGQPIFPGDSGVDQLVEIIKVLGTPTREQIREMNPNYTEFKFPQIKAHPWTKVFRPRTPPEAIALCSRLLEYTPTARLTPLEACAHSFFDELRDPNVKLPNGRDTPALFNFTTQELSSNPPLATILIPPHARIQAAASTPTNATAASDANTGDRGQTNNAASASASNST

HCK (human) = HCK (human) (UniProt P08631)
IGF1R (human) = IGF1R (human) (UniProt P08069)
INSR (human) = INSR (human) (UniProt P06213)
Sequence of INSR (human) (P06213 whole entry, looked up): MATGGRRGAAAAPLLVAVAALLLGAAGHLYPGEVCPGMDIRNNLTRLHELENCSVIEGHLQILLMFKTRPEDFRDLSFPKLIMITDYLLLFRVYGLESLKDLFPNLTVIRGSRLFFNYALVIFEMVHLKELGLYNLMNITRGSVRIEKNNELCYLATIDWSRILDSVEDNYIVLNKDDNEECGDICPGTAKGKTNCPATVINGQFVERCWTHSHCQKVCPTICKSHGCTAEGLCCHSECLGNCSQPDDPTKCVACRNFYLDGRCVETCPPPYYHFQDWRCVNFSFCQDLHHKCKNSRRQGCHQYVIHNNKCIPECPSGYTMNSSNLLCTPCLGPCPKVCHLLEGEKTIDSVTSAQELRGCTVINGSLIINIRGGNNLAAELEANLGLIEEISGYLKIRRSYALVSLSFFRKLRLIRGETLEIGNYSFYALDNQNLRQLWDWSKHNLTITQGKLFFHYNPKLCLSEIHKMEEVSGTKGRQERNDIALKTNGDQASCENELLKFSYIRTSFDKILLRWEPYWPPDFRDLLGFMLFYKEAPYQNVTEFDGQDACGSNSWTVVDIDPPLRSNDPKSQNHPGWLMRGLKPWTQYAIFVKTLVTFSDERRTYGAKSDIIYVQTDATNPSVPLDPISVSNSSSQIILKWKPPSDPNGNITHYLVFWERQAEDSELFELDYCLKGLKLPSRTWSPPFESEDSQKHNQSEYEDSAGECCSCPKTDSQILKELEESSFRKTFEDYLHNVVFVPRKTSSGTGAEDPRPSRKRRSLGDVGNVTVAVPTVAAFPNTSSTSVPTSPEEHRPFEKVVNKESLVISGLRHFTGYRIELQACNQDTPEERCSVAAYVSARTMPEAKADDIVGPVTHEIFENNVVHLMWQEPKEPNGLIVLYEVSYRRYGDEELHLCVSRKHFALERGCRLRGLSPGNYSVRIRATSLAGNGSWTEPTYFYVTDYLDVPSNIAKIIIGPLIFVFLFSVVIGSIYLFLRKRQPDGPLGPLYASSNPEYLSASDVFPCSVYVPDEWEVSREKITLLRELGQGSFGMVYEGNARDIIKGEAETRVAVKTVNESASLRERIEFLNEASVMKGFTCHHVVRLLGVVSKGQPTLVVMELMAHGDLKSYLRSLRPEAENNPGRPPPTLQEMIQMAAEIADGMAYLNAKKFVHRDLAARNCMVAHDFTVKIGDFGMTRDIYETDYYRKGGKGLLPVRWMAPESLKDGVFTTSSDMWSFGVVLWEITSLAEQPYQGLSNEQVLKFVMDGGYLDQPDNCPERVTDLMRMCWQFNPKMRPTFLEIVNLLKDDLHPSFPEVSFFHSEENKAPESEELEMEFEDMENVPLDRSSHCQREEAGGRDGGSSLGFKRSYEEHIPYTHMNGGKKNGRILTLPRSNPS

IRAK4 (human) = IRAK4 (human) (UniProt Q9NWZ3)
Sequence of IRAK4 (human) (Q9NWZ3 whole entry, looked up): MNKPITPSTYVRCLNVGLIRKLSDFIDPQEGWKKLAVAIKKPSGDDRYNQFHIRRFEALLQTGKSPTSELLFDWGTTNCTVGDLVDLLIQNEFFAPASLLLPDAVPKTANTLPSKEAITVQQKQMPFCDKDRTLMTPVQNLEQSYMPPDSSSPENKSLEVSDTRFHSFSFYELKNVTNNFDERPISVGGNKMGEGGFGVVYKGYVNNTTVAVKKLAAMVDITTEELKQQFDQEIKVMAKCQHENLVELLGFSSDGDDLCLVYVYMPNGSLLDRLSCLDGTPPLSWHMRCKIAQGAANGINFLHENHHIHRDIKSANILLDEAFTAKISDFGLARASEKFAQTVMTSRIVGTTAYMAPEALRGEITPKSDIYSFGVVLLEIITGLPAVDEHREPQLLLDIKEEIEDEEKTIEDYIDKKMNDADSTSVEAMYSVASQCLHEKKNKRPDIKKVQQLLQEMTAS

KDR (human) = KDR (human) (UniProt P35968)
LCK (human) = LCK (human) (UniProt P06239)
MAPK11 (human) = MAPK11 (human) (UniProt Q15759)
Sequence of MAPK11 (human) (Q15759 whole entry, looked up): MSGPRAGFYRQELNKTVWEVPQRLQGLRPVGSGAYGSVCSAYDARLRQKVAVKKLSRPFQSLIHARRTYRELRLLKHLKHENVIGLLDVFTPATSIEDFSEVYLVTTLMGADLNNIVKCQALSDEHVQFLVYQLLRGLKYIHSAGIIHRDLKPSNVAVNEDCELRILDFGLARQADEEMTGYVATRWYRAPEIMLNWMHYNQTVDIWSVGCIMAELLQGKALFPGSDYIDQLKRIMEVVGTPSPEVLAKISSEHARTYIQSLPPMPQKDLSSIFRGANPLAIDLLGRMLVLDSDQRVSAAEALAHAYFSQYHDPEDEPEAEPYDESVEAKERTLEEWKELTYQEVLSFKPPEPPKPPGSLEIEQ

MAPK13 (human) = MAPK13 (human) (UniProt O15264)
MAPK14 (human) = MAPK14 (human) (UniProt Q16539)
MARK3 (human) = MARK3 (human) (UniProt P27448)
PIM1 (human) = PIM1 (human) (UniProt P11309)
PIM2 (human) = PIM2 (human) (UniProt Q9P1W9)
PRKCB1 (human) = PRKCB1 (human) (UniProt P05771)
PRKCE (human) = PRKCE (human) (UniProt Q02156)
Sequence of PRKCE (human) (Q02156 whole entry, looked up): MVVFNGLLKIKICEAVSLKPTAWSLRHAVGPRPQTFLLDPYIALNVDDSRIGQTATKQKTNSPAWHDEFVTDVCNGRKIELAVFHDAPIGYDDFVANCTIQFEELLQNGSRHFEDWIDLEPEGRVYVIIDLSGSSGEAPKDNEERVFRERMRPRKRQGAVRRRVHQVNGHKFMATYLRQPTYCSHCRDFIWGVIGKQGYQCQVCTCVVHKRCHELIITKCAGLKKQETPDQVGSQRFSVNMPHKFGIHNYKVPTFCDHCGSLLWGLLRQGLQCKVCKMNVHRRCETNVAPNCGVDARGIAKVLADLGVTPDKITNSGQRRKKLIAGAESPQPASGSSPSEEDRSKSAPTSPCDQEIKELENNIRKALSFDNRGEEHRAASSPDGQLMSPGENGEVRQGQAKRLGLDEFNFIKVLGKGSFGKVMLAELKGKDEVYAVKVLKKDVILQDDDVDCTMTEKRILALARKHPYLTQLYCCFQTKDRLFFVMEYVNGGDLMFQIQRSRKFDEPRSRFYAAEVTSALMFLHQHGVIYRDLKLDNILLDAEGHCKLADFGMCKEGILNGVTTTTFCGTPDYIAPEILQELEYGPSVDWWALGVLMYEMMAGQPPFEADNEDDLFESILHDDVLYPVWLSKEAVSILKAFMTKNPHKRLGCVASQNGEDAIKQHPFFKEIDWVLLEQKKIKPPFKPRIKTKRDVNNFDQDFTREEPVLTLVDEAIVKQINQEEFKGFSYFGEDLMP

PRKCH (human) = PRKCH (human) (UniProt P24723)
PRKD1 (human) = PRKD1 (human) (UniProt Q15139)
PRKD3 (human) = PRKD3 (human) (UniProt O94806)
RAF1 (human) = RAF1 (human) (UniProt P04049)
ROCK2 (human) = ROCK2 (human) (UniProt O75116)
TSSK1B (human) = TSSK1B (human) (UniProt Q9BXA7)
TSSK2 (human) = TSSK2 (human) (UniProt Q96PF2)

Sequence of CAMK2B (human) (Q13554 whole entry, looked up): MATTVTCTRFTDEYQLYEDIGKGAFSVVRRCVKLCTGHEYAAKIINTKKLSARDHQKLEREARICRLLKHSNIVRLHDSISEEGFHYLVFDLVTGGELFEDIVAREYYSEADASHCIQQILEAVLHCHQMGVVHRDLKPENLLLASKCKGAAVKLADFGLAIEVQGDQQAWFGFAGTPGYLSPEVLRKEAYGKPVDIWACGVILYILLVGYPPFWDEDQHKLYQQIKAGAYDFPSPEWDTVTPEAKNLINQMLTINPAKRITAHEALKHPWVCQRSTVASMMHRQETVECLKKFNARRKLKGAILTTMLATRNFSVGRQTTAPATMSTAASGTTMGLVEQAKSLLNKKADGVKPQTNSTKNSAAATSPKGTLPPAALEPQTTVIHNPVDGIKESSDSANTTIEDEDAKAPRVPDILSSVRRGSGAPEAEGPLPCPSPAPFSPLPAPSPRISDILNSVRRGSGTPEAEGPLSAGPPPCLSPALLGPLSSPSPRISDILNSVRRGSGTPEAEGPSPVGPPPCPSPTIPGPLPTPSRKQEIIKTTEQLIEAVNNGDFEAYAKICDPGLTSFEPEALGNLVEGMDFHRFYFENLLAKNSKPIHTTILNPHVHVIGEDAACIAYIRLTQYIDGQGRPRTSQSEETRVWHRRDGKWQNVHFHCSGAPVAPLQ

Compound: O=c1c2cc(CS(=O)(=O)NCc3ccccn3)ccc2ccc2ncc(C3CCNCC3)cc12
- inhibition ([1]; compound 0.01 µM): 3.6%
- inhibition ([1]; compound 0.1 µM): 26.3%
- inhibition (ABL2 (human); compound 0.01 µM): 4.8%
- inhibition (ABL2 (human); compound 0.1 µM): 3.1%
- inhibition (AURKB (human); compound 0.01 µM): 3.2%
- inhibition (AURKB (human); compound 0.1 µM): 17%
- inhibition (AURKC (human); compound 0.01 µM): -15.8%
- inhibition (AURKC (human); compound 0.1 µM): 5.6%
- inhibition (CAMK2B (human); compound 0.01 µM): 79.2%
- inhibition (CAMK2B (human); compound 0.1 µM): -4.6%
- inhibition (CHEK1 (human); compound 0.01 µM): -2.8%
- inhibition (CHEK1 (human); compound 0.1 µM): -6%
- inhibition (CHEK2 (human); compound 0.01 µM): -5.2%
- inhibition (CHEK2 (human); compound 0.1 µM): -5.1%
- inhibition (CSNK1D (human); compound 0.01 µM): 2%
- inhibition (CSNK1D (human); compound 0.1 µM): -2.8%
- inhibition (DYRK1A (human); compound 0.01 µM): 7.6%
- inhibition (DYRK1A (human); compound 0.1 µM): -4.3%
- inhibition ([2]; compound 0.01 µM): -4.6%
- inhibition ([2]; compound 0.1 µM): 3.3%
- inhibition (FGFR4 (human); compound 0.01 µM): 12.6%
- inhibition (FGFR4 (human); compound 0.1 µM): -18.4%
- inhibition (FLT3 (human); compound 0.01 µM): 0.2%
- inhibition (FLT3 (human); compound 0.1 µM): 5%
- inhibition (GSK3B (human); compound 0.01 µM): -1.8%
- inhibition (GSK3B (human); compound 0.1 µM): -1%
- inhibition (HCK (human); compound 0.01 µM): 2.6%
- inhibition (HCK (human); compound 0.1 µM): -2%
- inhibition (IGF1R (human); compound 0.01 µM): 5%
- inhibition (IGF1R (human); compound 0.1 µM): -2.7%
- inhibition (INSR (human); compound 0.01 µM): -1.4%
- inhibition (INSR (human); compound 0.1 µM): -2.5%
- inhibition (IRAK4 (human); compound 0.01 µM): 19.1%
- inhibition (IRAK4 (human); compound 0.1 µM): -1.2%
- inhibition (KDR (human); compound 0.01 µM): -4.1%
- inhibition (KDR (human); compound 0.1 µM): 4.1%
- inhibition (LCK (human); compound 0.01 µM): -2.9%
- inhibition (LCK (human); compound 0.1 µM): 3.3%
- inhibition (MAPK11 (human); compound 0.01 µM): -1.5%
- inhibition (MAPK11 (human); compound 0.1 µM): 0.7%
- inhibition (MAPK13 (human); compound 0.01 µM): 5.5%
- inhibition (MAPK13 (human); compound 0.1 µM): -5.7%
- inhibition (MAPK14 (human); compound 0.01 µM): -1.2%
- inhibition (MAPK14 (human); compound 0.1 µM): -6.5%
- inhibition (MARK3 (human); compound 0.01 µM): -1.6%
- inhibition (MARK3 (human); compound 0.1 µM): -2.2%
- inhibition (PIM1 (human); compound 0.01 µM): -4.8%
- inhibition (PIM1 (human); compound 0.1 µM): -6.2%
- inhibition (PIM2 (human); compound 0.01 µM): 4.3%
- inhibition (PIM2 (human); compound 0.1 µM): 2.9%
- inhibition (PRKCB1 (human); compound 0.01 µM): 4.1%
- inhibition (PRKCB1 (human); compound 0.1 µM): 6.7%
- inhibition (PRKCE (human); compound 0.01 µM): 1.3%
- inhibition (PRKCE (human); compound 0.1 µM): -2%
- inhibition (PRKCH (human); compound 0.01 µM): -4.3%
- inhibition (PRKCH (human); compound 0.1 µM): -6.9%
- inhibition (PRKD1 (human); compound 0.01 µM): -2.8%
- inhibition (PRKD1 (human); compound 0.1 µM): -4.1%
- inhibition (PRKD3 (human); compound 0.01 µM): 3.2%
- inhibition (PRKD3 (human); compound 0.1 µM): -5.2%
- inhibition (RAF1 (human); compound 0.01 µM): 1.4%
- inhibition (RAF1 (human); compound 0.1 µM): 0.6%
- inhibition (ROCK2 (human); compound 0.01 µM): 5.8%
- inhibition (ROCK2 (human); compound 0.1 µM): 8.4%
- inhibition (TSSK1B (human); compound 0.01 µM): 7.3%
- inhibition (TSSK1B (human); compound 0.1 µM): -5.2%
- inhibition (TSSK2 (human); compound 0.01 µM): 55.4%
- inhibition (TSSK2 (human); compound 0.1 µM): -6.2%

Compound: O=C(CCc1ccc2ccc3ncc(C4CCNCC4)cc3c(=O)c2c1)NCc1ccccn1
- inhibition ([1]; compound 0.1 µM): -1.7%
- inhibition ([1]; compound 1.0 µM): 8.1%
- inhibition (ABL2 (human); compound 0.1 µM): 2.6%
- inhibition (ABL2 (human); compound 1.0 µM): -3.4%
- inhibition (AURKB (human); compound 0.1 µM): 8%
- inhibition (AURKB (human); compound 1.0 µM): 27.6%
- inhibition (AURKC (human); compound 0.1 µM): 7.5%
- inhibition (AURKC (human); compound 1.0 µM): 18.6%
- inhibition (CAMK2B (human); compound 0.1 µM): -1.6%
- inhibition (CAMK2B (human); compound 1.0 µM): 0.8%
- inhibition (CHEK1 (human); compound 0.1 µM): -0.6%
- inhibition (CHEK1 (human); compound 1.0 µM): 2.9%
- inhibition (CHEK2 (human); compound 0.1 µM): 4.2%
- inhibition (CHEK2 (human); compound 1.0 µM): 1.2%
- inhibition (CSNK1D (human); compound 0.1 µM): -7.1%
- inhibition (CSNK1D (human); compound 1.0 µM): -2.9%
- inhibition (DYRK1A (human); compound 0.1 µM): 5.6%
- inhibition (DYRK1A (human); compound 1.0 µM): -6.7%
- inhibition ([2]; compound 0.1 µM): -8.4%
- inhibition ([2]; compound 1.0 µM): 0.9%
- inhibition (FGFR4 (human); compound 0.1 µM): -3%
- inhibition (FGFR4 (human); compound 1.0 µM): -3.3%
- inhibition (FLT3 (human); compound 0.1 µM): -5.8%
- inhibition (FLT3 (human); compound 1.0 µM): -4%
- inhibition (GSK3B (human); compound 0.1 µM): -0.6%
- inhibition (GSK3B (human); compound 1.0 µM): -3.3%
- inhibition (HCK (human); compound 0.1 µM): -1.8%
- inhibition (HCK (human); compound 1.0 µM): 3.1%
- inhibition (IGF1R (human); compound 0.1 µM): -3%
- inhibition (IGF1R (human); compound 1.0 µM): 1.3%
- inhibition (INSR (human); compound 0.1 µM): 5.1%
- inhibition (INSR (human); compound 1.0 µM): 3.5%
- inhibition (IRAK4 (human); compound 0.1 µM): -10.2%
- inhibition (IRAK4 (human); compound 1.0 µM): 0.3%
- inhibition (KDR (human); compound 0.1 µM): 4.9%
- inhibition (KDR (human); compound 1.0 µM): 16.8%
- inhibition (LCK (human); compound 0.1 µM): -3.4%
- inhibition (LCK (human); compound 1.0 µM): -2.9%
- inhibition (MAPK11 (human); compound 0.1 µM): 0.6%
- inhibition (MAPK11 (human); compound 1.0 µM): -1%
- inhibition (MAPK13 (human); compound 0.1 µM): -1.8%
- inhibition (MAPK13 (human); compound 1.0 µM): 3.9%
- inhibition (MAPK14 (human); compound 0.1 µM): -10.6%
- inhibition (MAPK14 (human); compound 1.0 µM): 5.1%
- inhibition (MARK3 (human); compound 0.1 µM): 0.7%
- inhibition (MARK3 (human); compound 1.0 µM): -4.4%
- inhibition (PIM1 (human); compound 0.1 µM): -2.4%
- inhibition (PIM1 (human); compound 1.0 µM): -4.4%
- inhibition (PIM2 (human); compound 0.1 µM): -0.1%
- inhibition (PIM2 (human); compound 1.0 µM): -3.2%
- inhibition (PRKCB1 (human); compound 0.1 µM): 1.2%
- inhibition (PRKCB1 (human); compound 1.0 µM): -12.2%
- inhibition (PRKCE (human); compound 0.1 µM): 9.3%
- inhibition (PRKCE (human); compound 1.0 µM): -0.4%
- inhibition (PRKCH (human); compound 0.1 µM): 7.2%
- inhibition (PRKCH (human); compound 1.0 µM): -8.7%
- inhibition (PRKD1 (human); compound 0.1 µM): 7%
- inhibition (PRKD1 (human); compound 1.0 µM): 11%
- inhibition (PRKD3 (human); compound 0.1 µM): -21.2%
- inhibition (PRKD3 (human); compound 1.0 µM): 2.2%
- inhibition (RAF1 (human); compound 0.1 µM): 3.2%
- inhibition (RAF1 (human); compound 1.0 µM): -9.1%
- inhibition (ROCK2 (human); compound 0.1 µM): -2.6%
- inhibition (ROCK2 (human); compound 1.0 µM): 4.2%
- inhibition (TSSK1B (human); compound 0.1 µM): 5.4%
- inhibition (TSSK1B (human); compound 1.0 µM): -1.6%
- inhibition (TSSK2 (human); compound 0.1 µM): -2.3%
- inhibition (TSSK2 (human); compound 1.0 µM): 1.3%
